The record followed here is BindingDB's records for doi:10.1021/bi401014k (Texas A&M University, 2013).

Holding throughout (assay): ANS Fluorescence Displacement Assay
Experiment [1] addresses T1, Fatty acid-binding protein, liver (Homo sapiens, UniProt P07148).
T1 sequence (P07148 whole entry): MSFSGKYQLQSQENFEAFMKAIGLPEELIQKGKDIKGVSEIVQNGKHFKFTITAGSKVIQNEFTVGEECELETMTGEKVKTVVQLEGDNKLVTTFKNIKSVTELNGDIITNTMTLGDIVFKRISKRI
On the procedure:
(§1) A solution of the L-FABP (500 nM) and ANS (35 µM) was titrated with phytanic acid (0-6.4 µM) or fenofibrate (0-6 µM for the rat L-FABP and 0-4 µM for the human L-FABP) or fenofibric acid (0-300 µM for the rat L-FABP and 0-48 µM for the human L-FABP).

The target of experiment [2] is T2, Fatty acid-binding protein, liver (Rattus norvegicus, UniProt P02692).
T2 sequence (P02692 whole entry): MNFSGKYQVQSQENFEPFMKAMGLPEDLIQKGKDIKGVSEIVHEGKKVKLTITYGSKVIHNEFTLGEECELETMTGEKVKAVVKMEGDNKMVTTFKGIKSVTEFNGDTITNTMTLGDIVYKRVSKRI
On the procedure: as §1

The target in experiment [3] is Fatty acid-binding protein, liver [T94A] (Homo sapiens, UniProt P07148, T94A). The method, then: as §1
Chain of Fatty acid-binding protein, liver [T94A] (P07148 whole entry T94A): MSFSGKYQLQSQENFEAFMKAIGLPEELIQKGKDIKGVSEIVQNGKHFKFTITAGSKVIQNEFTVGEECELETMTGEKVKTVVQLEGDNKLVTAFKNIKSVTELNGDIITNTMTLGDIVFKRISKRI

Broadly, the Ki is a dissociation constant, usually derived from enzyme kinetics or from competition with a known ligand. As to `CC(C)CCC[C@H](C)CCC[C@H](C)CCC[C@@H](C)CC(=O)O` [3,7,11,15-tetramethylhexadecanoic acid], the inhibition constant (Ki) in experiment [1] was determined as 35 nM; in experiment [2], 37 nM; in experiment [3], 38 nM.

For the compound `CC(C)(Oc1ccc(C(=O)c2ccc(Cl)cc2)cc1)C(=O)O` [alpha-1081], the Ki came to 250 nM in experiment [1], 5800 nM in experiment [2] and 310 nM in experiment [3].

Consider `CC(C)OC(=O)C(C)(C)Oc1ccc(C(=O)c2ccc(Cl)cc2)cc1` [Finofibrate], for which the Ki was determined as 15 nM in experiment [1], 100 nM in experiment [2] and 15 nM in experiment [3].
